The text below walks through data of patent US5648386A (priority 1990, dated 1997).

“Also recorded” adds a separate entry of the source.

In one data set the test system is mice. Description: acute toxicity in male and female mice i.v. The class given is in vivo. Here is the method: (§1) 1. […] They were also compared for their acute toxicity.
(§2) The acute toxicity was measured in male and female mice weighing between 20 and 25 g after intravenous administration. An LD50 was calculated by […] from the percentage of animals which died within 14 days of being given the substance.

The next data set deals with fat cells. As to the kind of experiment: β-mimetic effect on fat cells: lipolytic effect (free fatty acids in blood) in conscious rabbits i.v. It counts as in vivo. The note with it: for ED150 (dose which resulted in a 50% increase in the free fatty acid in the blood): conscious rabbits, linear regression, range in parentheses.
Text: as §1
The β-mimetic effect on the fat cells was investigated in terms of a lipolytic effect on conscious rabbits after i.v. administration.

Another data set has as its system lambs. As to the kind of experiment: performance enhancing effect in lambs (feed, 6 weeks). It counts as in vivo, Suffolk×Galway wether lambs. The following applies: for Weight of carcass / Final weight / Composition of carcass tissue (without bones): Protein / Feed utilization in g of weight gain per kg of feed / Composition of carcass tissue (without bones): Fat / Weight gain in g per day / Composition of carcass tissue (without bones): Water: 2 mg/kg in feed, 6 weeks; for Starting weight: baseline, control 34.4. The source says:
2. […] At the same time steps were taken to ensure that the lambs were offered at least 10% excess feed during the experimental period. The lambs were then killed and the following parameters were obtained: […]

The test system of data set [1] is β-receptors of the skeletal musculature. Description: β-mimetic effect on skeletal musculature (BOWMAN and NOTT): tension of incompletely tetanically contracting M. soleus of anaesthetized cats i.v. It counts as in vivo. The note with it: for Reduction in tension in % (x): anaesthetized cats, M. soleus, n=5. Here is the method:
as §1
The β-mimetic effect on the skeletal musculature was tested using the method of BOWMAN and NOTT (Pharmacol. Rev. 21, 27 (1969)). This investigates the influence on the tension of the incompletely tetanically contracting M. soleus of anaesthetized cats after i.v. administration.

The nature of data set [2]: acute toxicity in male and female mice i.v. The following applies: mouse, in vivo, iv, male and female mice, death within 14 days, range in parentheses. It counts as in vivo. Here is the method: as §1, §2
Data set [3] can be described thus: overall comparison of the enantiomers (biological effects, use to risk). It counts as in vivo. The note with it: (-)- vs (+)-cimaterol, words.
Another data set concerns animals. The note with it: U.S. Pat. No. 4,407,819; cited from earlier work.

Take `CC(C)NCC(O)c1ccc(N)c(C#N)c1` (single isomer, unassigned; (+)) [(+)-Cimaterol, (+)-1-(4'-Amino-3'-cyano-phenyl)-2-isopropylamino-ethanol]: the LD50 in the data set on mice (male and female mice, death within 14 days, range in parentheses, 20160 min) is 86.3 (80.6-92.3) mg/kg. In addition, the “toxicity of the D-enantiomer compared with the L-enantiomer” value in the data set with mice (mice, words) is recorded as “the same toxicity as the L-enantiomer”. The “doses needed to achieve a 50% increase in the free fatty acids, times greater than those of the corresponding L-enantiomer” value in the data set on fat cells (D- vs L-enantiomer, rabbits) was “about 100 times”. Also, the “ED150 (dose which resulted in a 50% increase in the free fatty acid in the blood)” value in the data set on fat cells is reported as 9.770 (7.440-12.700) μg/kg. In the data set with lambs (control 22.8, 2 mg/kg), the “Weight of carcass” value came to 22.5 kg. In the data set on lambs (control 45.4, 2 mg/kg), the “Final weight” value was determined as 45.7 kg. The “Composition of carcass tissue (without bones): Protein” value in the data set with lambs (control 140, 2 mg/kg) turned out to be 151 g per kg. Further, the “Feed utilization in g of weight gain per kg of feed” value (“Feed utilization … per kg of feed” for short) in the data set with lambs (control 190, 2 mg/kg) is on record as 184 g of weight gain per kg of fee. For the same compound, the “Composition of carcass tissue (without bones): Fat” value (from here on “Composition … (without bones): Fat”) with lambs (control 248, 2 mg/kg) was found to be 341 g per kg. The “Weight gain in g per day” value with lambs (control 259, 2 mg/kg) amounted to 268 g per day. The “Composition of carcass tissue (without bones): Water” value (shortened to “Composition … (without bones): Water”) with lambs (control 501, 2 mg/kg) was 501 g per kg. In addition, the “Starting weight” value in the data set on lambs amounted to 34.8 kg. In addition, the “Reduction in tension in % (x)” value in data set [1] (dose 50.0 μg/kg) is 33.7%.
For `CC(C)NCC(O)c1ccc(N)c(C#N)c1` (single isomer, unassigned; (-)) [(-)-Cimaterol, (-)-1-(4'-Amino-3'-cyano-phenyl)-2-isopropylamino-ethanol], the LD50 at 336 h in data set [2] is 74.8 mg/kg. In addition, the “ED150 (dose which resulted in a 50% increase in the free fatty acid in the blood)” value in the data set with fat cells is given as 0.098 (0.078-0.118) μg/kg. Also, the “carrier of the biological / desired effects of cimaterol” value in data set [3] is recorded as “the only carrier of the biological effects of cimaterol; also recorded: the sole carrier of the desired effects”. Also, in the data set with lambs (control 22.8, 2 mg/kg), the “Weight of carcass” value is on record as 24.1 kg. Besides, the “Final weight” value in the data set with lambs (control 45.4, 2 mg/kg) came out at 48.0 kg. Moreover, the “Composition of carcass tissue (without bones): Protein” value in the data set on lambs (control 140, 2 mg/kg) came to 177 g per kg. The “Feed utilization … per kg of feed” value with lambs (control 190, 2 mg/kg) was 220 g of weight gain per kg of fee. Moreover, the “Composition … (without bones): Fat” value in the data set with lambs (control 248, 2 mg/kg) came out at 252 g per kg. The “Weight gain in g per day” value with lambs (control 259, 2 mg/kg) amounted to 324 g per day. The “Composition … (without bones): Water” value in the data set on lambs (control 501, 2 mg/kg) is 557 g per kg. For the same compound, in the data set on lambs, the “Starting weight” value is 34.2 kg. In addition, the “times more effective than the corresponding D-enantiomer on the β-receptors of the skeletal musculature” value in data set [1] (L- vs D-enantiomer, cats) is “more than 100 times”. Moreover, the “Reduction in tension in % (x)” value in data set [1] (dose 0.5 μg/kg) came to 42.1%.
As to `CC(C)NCC(O)c1ccc(N)c(C#N)c1` (racemic) [Cimaterol, 1-(4'-amino-3'-cyano-phenyl)-2-isopropylaminoethanol, reference compound], the “Weight of carcass” value with lambs (control 22.8) stood at 24.0 kg. Also, the “Final weight” value with lambs (control 45.4) was 46.0 kg. The “Composition of carcass tissue (without bones): Protein” value with lambs (control 140) is reported as 167 g per kg. The “Feed utilization … per kg of feed” value in the data set with lambs (control 190) is listed as 196 g of weight gain per kg of fee. In the data set on lambs (control 248), the “Composition … (without bones): Fat” value was 265 g per kg. In addition, the “Weight gain in g per day” value with lambs (control 259) came out at 275 g per day. The “Composition … (without bones): Water” value in the data set on lambs (control 501) was found to be 556 g per kg. In addition, the “Starting weight” value with lambs worked out at 34.9 kg. In addition, the performance-enhancing effect result with animals was “performance-enhancing effect”. Also, the “Reduction in tension in % (x)” value in data set [1] (dose 0.5 μg/kg) was determined as 38.3%.
